Test results taken from patent publication US10758534B2 (Vertex Pharmaceuticals Incorporated, priority 2014, dated 2020).

target: T1, F508del (Homo sapiens, UniProt P13569, DEL508-508); experiment: Protocol 1: membrane potential optical assay (FLIPR III, voltage sensing dye), identification of potentiator compounds; format: cell-based; settings: Table 3, compounds of Table 1
T1 construct: expressed in transfected cells
Procedure, shortened: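 Gating potentiation is read as a membrane-potential fluorescence change (FLIPR III, voltage-sensing dye) after one forskolin addition under a Cl− gradient, with gluconate replacing chloride, pH 7.4. Cells are F508del-expressing NIH3T3 mouse fibroblasts held 24 h at 27 °C and exposed to compound before dye loading.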

T1 sequence (P13569 with tags, fused parts or gaps DEL508-508): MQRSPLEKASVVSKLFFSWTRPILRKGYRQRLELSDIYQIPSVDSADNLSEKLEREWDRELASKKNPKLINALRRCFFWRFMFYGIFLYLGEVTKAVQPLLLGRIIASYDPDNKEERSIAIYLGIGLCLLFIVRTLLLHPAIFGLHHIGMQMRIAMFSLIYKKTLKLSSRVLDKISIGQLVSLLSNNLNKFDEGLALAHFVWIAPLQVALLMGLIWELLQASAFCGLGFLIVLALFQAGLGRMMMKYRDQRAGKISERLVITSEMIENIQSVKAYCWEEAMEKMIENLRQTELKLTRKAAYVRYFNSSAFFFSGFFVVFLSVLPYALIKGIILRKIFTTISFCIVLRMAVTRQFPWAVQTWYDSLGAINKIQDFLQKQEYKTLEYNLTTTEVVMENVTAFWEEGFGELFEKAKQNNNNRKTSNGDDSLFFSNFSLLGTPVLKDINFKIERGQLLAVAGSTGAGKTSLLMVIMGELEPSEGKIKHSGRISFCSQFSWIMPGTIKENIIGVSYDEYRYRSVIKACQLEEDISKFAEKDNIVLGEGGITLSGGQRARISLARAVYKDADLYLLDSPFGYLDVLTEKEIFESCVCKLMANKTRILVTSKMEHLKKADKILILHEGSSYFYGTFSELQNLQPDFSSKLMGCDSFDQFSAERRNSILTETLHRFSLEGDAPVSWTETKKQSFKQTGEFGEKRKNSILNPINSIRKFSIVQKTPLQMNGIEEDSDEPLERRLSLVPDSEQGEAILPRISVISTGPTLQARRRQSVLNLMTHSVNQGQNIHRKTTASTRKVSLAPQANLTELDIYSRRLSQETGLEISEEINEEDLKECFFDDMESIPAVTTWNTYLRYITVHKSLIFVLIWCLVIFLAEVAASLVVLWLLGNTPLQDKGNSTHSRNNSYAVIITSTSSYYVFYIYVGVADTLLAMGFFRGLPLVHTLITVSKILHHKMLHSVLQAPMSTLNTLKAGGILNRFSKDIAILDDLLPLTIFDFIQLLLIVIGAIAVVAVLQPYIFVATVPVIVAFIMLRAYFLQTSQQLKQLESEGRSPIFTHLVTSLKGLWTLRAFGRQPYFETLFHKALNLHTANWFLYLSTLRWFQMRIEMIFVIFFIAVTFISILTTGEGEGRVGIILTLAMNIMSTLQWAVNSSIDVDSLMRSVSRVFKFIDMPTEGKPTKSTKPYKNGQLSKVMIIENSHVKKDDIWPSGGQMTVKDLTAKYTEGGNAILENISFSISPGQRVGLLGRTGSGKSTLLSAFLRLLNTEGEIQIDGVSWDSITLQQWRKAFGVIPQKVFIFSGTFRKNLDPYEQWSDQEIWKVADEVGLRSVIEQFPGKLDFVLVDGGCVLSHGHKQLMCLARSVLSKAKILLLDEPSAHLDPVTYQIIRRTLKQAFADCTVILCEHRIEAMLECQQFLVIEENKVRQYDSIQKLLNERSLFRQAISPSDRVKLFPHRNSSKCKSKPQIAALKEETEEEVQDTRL

EC30 | Structure (SMILES)
+++ (“+++” means <3 uM) | Cc1cc(C)c(Oc2nc(-c3cccc(F)c3O)ccc2C(=O)NS(=O)(=O)c2cccc(N)n2)c(C)c1 [Compound 866, N-[(6-amino-2-pyridyl)sulfonyl]-6-(3-fluoro-2-hydroxy-phenyl)-2-(2,4,6-trimethylphenoxy)pyridine-3-carboxamide]
+++ (“+++” means <3 uM) | Cc1cc(C)c(Oc2ncc(-c3ccccc3C(C)(C)C)cc2C(=O)NS(=O)(=O)c2cccc(N)n2)c(C)c1 [Compound 868, N-[(6-amino-2-pyridyl)sulfonyl]-5-(2-tert-butylphenyl)-2-(2,4,6-trimethylphenoxy)pyridine-3-carboxamide]
+++ (“+++” means <3 uM) | Cc1cc(C)c(Oc2nc(-c3ccccc3)ccc2C(=O)NS(=O)(=O)c2cccc(N(C)C)n2)c(C)c1 [Compound 869, N-[[6-(dimethylamino)-2-pyridyl]sulfonyl]-6-phenyl-2-(2,4,6-trimethylphenoxy)pyridine-3-carboxamide]
++ (“++” means between 3 uM and 10 uM) | Cc1cc(C)c(CN2C[C@H](c3ccccc3)C[C@H]2C(=O)NS(=O)(=O)c2cccc(N)n2)c(C)c1 [Compound 870, (2S,4S)—N-[(6-amino-2-pyridyl)sulfonyl]-4-phenyl-1-[(2,4,6-trimethylphenyl)methyl]pyrrolidine-2-carboxamide]
+++ (“+++” means <3 uM) | Cc1cc(C)c(CN2Cc3ccccc3C2(C)C(=O)NS(=O)(=O)c2ccccc2)c(C)c1 (centres unmarked) [Compound 873, N-(benzenesulfonyl)-1-methyl-2-[(2,4,6-trimethylphenyl)methyl]isoindoline-1-carboxamide]
+++ (“+++” means <3 uM) | Cc1cc(C)c(Oc2nc(-c3ccc(C)cc3F)ccc2C(=O)NS(=O)(=O)c2cccc(N)n2)c(C)c1 [Compound 875, N-[(6-amino-2-pyridyl)sulfonyl]-6-(2-fluoro-4-methyl-phenyl)-2-(2,4,6-trimethylphenoxy)pyridine-3-carboxamide]
+++ (“+++” means <3 uM) | COc1ncccc1S(=O)(=O)NC(=O)C1Cc2ccccc2CCN1Cc1c(C)cc(C)cc1C (centres unmarked) [Compound 876, N-[(2-methoxy-3-pyridyl)sulfonyl]-3-[(2,4,6-trimethylphenyl)methyl]-1,2,4,5-tetrahydro-3-benzazepine-4-carboxamide]
+++ (“+++” means <3 uM) | Cc1cc(C)c(Oc2nc(-c3ccccc3Cl)ccc2C(=O)NS(=O)(=O)c2ccc[nH]c2=O)c(C)c1 [Compound 877, 6-(2-chlorophenyl)-N-[(2-oxo-1H-pyridin-3-yl)sulfonyl]-2-(2,4,6-trimethylphenoxy)pyridine-3-carboxamide]
+ (“+” means greater than 10 uM) | Cc1ccc(-c2ccc(C(=O)NS(=O)(=O)c3cc[nH]n3)c(NCC3(C)CCOCC3)n2)cc1 [Compound 879, 2-[(4-methyltetrahydropyran-4-yl)methylamino]-6-(p-tolyl)-N-(1H-pyrazol-3-ylsulfonyl)pyridine-3-carboxamide]
++ (“++” means between 3 uM and 10 uM) | CC(C)(C)c1ccc(C(=O)NS(=O)(=O)c2ccc(N)cc2)c(C2=CCCCC2)n1 [Compound 880, N-(4-aminophenyl)sulfonyl-6-tert-butyl-2-(cyclohexen-1-yl)pyridine-3-carboxamide]
+++ (“+++” means <3 uM) | Cc1cc(C)c(Oc2nc(C3=CCCCC3)ccc2C(=O)NS(=O)(=O)c2ccc[nH]c2=O)c(C)c1 [Compound 882, 6-(cyclohexen-1-yl)-N-[(2-oxo-1H-pyridin-3-yl)sulfonyl]-2-(2,4,6-trimethylphenoxy)pyridine-3-carboxamide]
++ (“++” means between 3 uM and 10 uM) | Cc1cc(C)c(Oc2nc(C)ccc2C(=O)NS(=O)(=O)c2cccc(N3CCOCC3)n2)c(C)c1 [Compound 883, 6-methyl-N-[(6-morpholino-2-pyridyl)sulfonyl]-2-(2,4,6-trimethylphenoxy)pyridine-3-carboxamide]
++ (“++” means between 3 uM and 10 uM) | CC(C)Oc1ccc(-c2ccc(C(=O)NS(=O)(=O)c3cccc(N)n3)c(N3CCC(OCC4CC4)CC3)n2)cn1 [Compound 884, N-[(6-amino-2-pyridyl)sulfonyl]-2-[4-(cyclopropylmethoxy)-1-piperidyl]-6-(6-isopropoxy-3-pyridyl)pyridine-3-carboxamide]
++ (“++” means between 3 uM and 10 uM) | Cc1cc(C)c(CN2Cc3ccc(O)cc3C2(C)C(=O)NS(=O)(=O)c2cccc(N)n2)c(C)c1 (centres unmarked) [Compound 885, N-[(6-amino-2-pyridyl)sulfonyl]-6-hydroxy-1-methyl-2-[(2,4,6-trimethylphenyl)methyl]isoindoline-1-carboxamide]

The next lines start with the molecule.

Structure (SMILES) | EC30
CC(C)COc1cc(F)cc(-c2ccc(C(=O)NS(=O)(=O)c3cccc(N)n3)c(N3CC4CCCC4C3)n2)c1 (centres unmarked) [Compound 857, 2-(3,3a,4,5,6,6a-hexahydro-1H-cyclopenta[c]pyrrol-2-yl)-N-[(6-amino-2-pyridyl)sulfonyl]-6-(3-fluoro-5-isobutoxy-phenyl)pyridine-3-carboxamide] | +++ (“+++” means <3 uM)
CC(C)Oc1ccc(-c2ccc(C(=O)NS(=O)(=O)c3cccc(N)n3)c(N3CCCC(OCC4CC4)C3)n2)cn1 (centres unmarked) [Compound 858, N-[(6-amino-2-pyridyl)sulfonyl]-2-[3-(cyclopropylmethoxy)-1-piperidyl]-6-(6-isopropoxy-3-pyridyl)pyridine-3-carboxamide] | ++ (“++” means between 3 uM and 10 uM)
CC(C)COc1cc(F)cc(-c2ccc(C(=O)NS(=O)(=O)c3cccc(N)n3)c(N3CCCC3c3ccccc3)n2)c1 (centres unmarked) [Compound 859, N-[(6-amino-2-pyridyl)sulfonyl]-6-(3-fluoro-5-isobutoxy-phenyl)-2-(2-phenylpyrrolidin-1-yl)pyridine-3-carboxamide] | +++ (“+++” means <3 uM)
CCOc1cc(-c2ccc(C(=O)NS(=O)(=O)c3cccc(N)n3)c(Oc3c(C)cc(C)cc3C)n2)ccc1OC [Compound 860, N-[(6-amino-2-pyridyl)sulfonyl]-6-(3-ethoxy-4-methoxy-phenyl)-2-(2,4,6-trimethylphenoxy)pyridine-3-carboxamide] | ++ (“++” means between 3 uM and 10 uM)
COc1ncc(-c2ccc(C(=O)NS(=O)(=O)c3cccnc3OC)c(-c3ccc(C)cc3)n2)cc1C [Compound 861, 6-(6-methoxy-5-methyl-3-pyridyl)-N-[(2-methoxy-3-pyridyl)sulfonyl]-2-(p-tolyl)pyridine-3-carboxamide] | ++ (“++” means between 3 uM and 10 uM)
CCCCCc1ccc(C(=O)NS(=O)(=O)c2cccc(N)n2)c(Oc2c(C)cc(C)cc2C)n1 [Compound 862, N-[(6-amino-2-pyridyl)sulfonyl]-6-pentyl-2-(2,4,6-trimethylphenoxy)pyridine-3-carboxamide] | +++ (“+++” means <3 uM)
COc1ncc(-c2ccc(C(=O)NS(=O)(=O)c3cccc(N)n3)c(N3CCC(C)CC3)n2)cc1C [Compound 863, N-[(6-amino-2-pyridyl)sulfonyl]-6-(6-methoxy-5-methyl-3-pyridyl)-2-(4-methyl-1-piperidyl)pyridine-3-carboxamide] | ++ (“++” means between 3 uM and 10 uM)
CC(C)Oc1ccc(-c2ccc(C(=O)NS(=O)(=O)c3cccc(N)n3)c(N3CCC[C@@H](c4ccccc4)C3)n2)cn1 [Compound 864, N-[(6-amino-2-pyridyl)sulfonyl]-6-(6-isopropoxy-3-pyridyl)-2-[(3S)-3-phenyl-1-piperidyl]pyridine-3-carboxamide] | +++ (“+++” means <3 uM)
Cc1cc(C)c(Oc2ncc(-c3ccccc3C(C)C)cc2C(=O)NS(=O)(=O)c2cccc(N)n2)c(C)c1 [Compound 865, N-[(6-amino-2-pyridyl)sulfonyl]-5-(2-isopropylphenyl)-2-(2,4,6-trimethylphenoxy)pyridine-3-carboxamide] | +++ (“+++” means <3 uM)
CC(C)COc1cc(F)cc(-c2ccc(C(=O)NS(=O)(=O)c3cccc(N)n3)c(OC(C)c3ccc(F)cc3)n2)c1 (centres unmarked) [Compound 867, N-[(6-amino-2-pyridyl)sulfonyl]-6-(3-fluoro-5-isobutoxy-phenyl)-2-[1-(4-fluorophenyl)ethoxy]pyridine-3-carboxamide] | +++ (“+++” means <3 uM)
Cc1cc(C)c(Oc2nc(-c3cc(F)cc(OCC(C)C)c3)ccc2C(=O)NS(=O)(=O)c2cccc(CN)n2)c(C)c1 [Compound 871, N-[[6-(aminomethyl)-2-pyridyl]sulfonyl]-6-(3-fluoro-5-isobutoxy-phenyl)-2-(2,4,6-trimethylphenoxy)pyridine-3-carboxamide] | +++ (“+++” means <3 uM)
CC(C)COc1cc(F)cc(-c2ccc(C(=O)NS(=O)(=O)c3cccc(N)n3)c(OC3COC3)n2)c1 [Compound 872, N-[(6-amino-2-pyridyl)sulfonyl]-6-(3-fluoro-5-isobutoxy-phenyl)-2-(oxetan-3-yloxy)pyridine-3-carboxamide] | ++ (“++” means between 3 uM and 10 uM)
CC(C)COc1cc(F)cc(-c2ccc(C(=O)NS(=O)(=O)c3cccc(N)n3)c(OC(C)c3ccccc3)n2)c1 (centres unmarked) [Compound 874, N-[(6-amino-2-pyridyl)sulfonyl]-6-(3-fluoro-5-isobutoxy-phenyl)-2-(1-phenylethoxy)pyridine-3-carboxamide] | +++ (“+++” means <3 uM)
CC(C)COc1cc(F)cc(-c2ccc(C(=O)NS(=O)(=O)c3ccn[nH]3)c(N3CCCC(F)C3)n2)c1 (centres unmarked) [Compound 878, 6-(3-fluoro-5-isobutoxy-phenyl)-2-(3-fluoro-1-piperidyl)-N-(1H-pyrazol-5-ylsulfonyl)pyridine-3-carboxamide] | ++ (“++” means between 3 uM and 10 uM)
CCCN(CC1CC1)c1nc(-c2cc(F)cc(OCC(C)C)c2)ccc1C(=O)NS(=O)(=O)c1cccc(N)n1 [Compound 881, N-[(6-amino-2-pyridyl)sulfonyl]-2-[cyclopropylmethyl(propyl)amino]-6-(3-fluoro-5-isobutoxy-phenyl)pyridine-3-carboxamide] | +++ (“+++” means <3 uM)
